Source: the NIST ThermoML archive (doi:10.1021/je050165t)

Legend:
[1] = 101 kPa, Liquid
[2] = xn = mol fraction of the nth substance listed; conditions: 101 kPa, Liquid

CCCCn1cc[n+](C)c1.F[P-](F)(F)(F)(F)F [1-butyl-3-methylimidazolium hexafluorophosphate]
[1]
Conditions | mass density [kg/m3] | speed of sound [m/s]
298.15 K | 1366.66 | 1442.4
303.15 K | 1362.4 | 1430.6
308.15 K | 1358.3 | 1419
313.15 K | 1354.19 | 1407.5
318.15 K | 1350.08 | 1396.3

CCCCn1cc[n+](C)c1.F[P-](F)(F)(F)(F)F [1-butyl-3-methylimidazolium hexafluorophosphate] + CC#N
[2]
Conditions | mass density, 298.15 K [kg/m3] | mass density, 303.15 K [kg/m3] | mass density, 308.15 K [kg/m3] | mass density, 313.15 K [kg/m3] | mass density, 318.15 K [kg/m3] | speed of sound, 298.15 K [m/s] | speed of sound, 303.15 K [m/s] | speed of sound, 308.15 K [m/s] | speed of sound, 313.15 K [m/s] | speed of sound, 318.15 K [m/s]
x1 = 0.0453 | 878.471 | 873.235 | 866.821 | 862.713 | 857.428 | 1293.5 | 1275.1 | 1256.7 | 1238.4 | 1220.2
x1 = 0.0935 | 959.103 | 954.02 | 948.924 | 943.817 | 938.706 | 1308.9 | 1291.8 | 1274.6 | 1257.5 | 1240.5
x1 = 0.2007 | 1085.08 | 1080.25 | 1075.41 | 1070.58 | 1065.76 | 1341.9 | 1326.2 | 1310.9 | 1295.8 | 1280.9
x1 = 0.2966 | 1159.89 | 1155.23 | 1150.56 | 1145.9 | 1141.24 | 1366.5 | 1352.2 | 1338.1 | 1324 | 1310
x1 = 0.4241 | 1228.44 | 1223.91 | 1219.4 | 1214.89 | 1210.4 | 1389 | 1375.6 | 1362.3 | 1349.2 | 1336.3
x1 = 0.514 | 1263.52 | 1258.71 | 1254.64 | 1250.22 | 1245.81 | 1402 | 1389.2 | 1376.5 | 1363.8 | 1351.2
x1 = 0.6186 | 1294.95 | 1290.95 | 1286.59 | 1282.25 | 1277.92 | 1413.5 | 1401 | 1388.7 | 1376.5 | 1364.4
x1 = 0.7285 | 1320.82 | 1316.59 | 1312.32 | 1308.06 | 1303.82 | 1423.9 | 1411.8 | 1399.9 | 1388 | 1376.2
x1 = 0.7886 | 1332.55 | 1328.3 | 1324.05 | 1319.81 | 1315.59 | 1427.9 | 1415.9 | 1404.1 | 1392.4 | 1380.8
x1 = 0.8925 | 1350.78 | 1346.33 | 1342.2 | 1338.05 | 1333.89 | 1436.5 | 1424.5 | 1412.6 | 1401 | 1389.5
x1 = 1 | 1366.66 | 1362.4 | 1358.3 | 1354.19 | 1350.08 | 1442.4 | 1430.6 | 1419 | 1407.5 | 1396.3
